Measured values: ChEMBL document CHEMBL1667735, “Human cytochrome P450 liability studies of trans-dihydronarciclasine: a readily available, potent, and selective cancer cell growth inhibitor” (J Nat Prod, 2011)

What was measured:
Cytochrome P450 1A1 = target: T1, Cytochrome P450 1A1 (Homo sapiens, UniProt P04798); test: Inhibition of human CYP1A1 at 10 uM; type: ADME
T1 sequence (P04798 whole entry): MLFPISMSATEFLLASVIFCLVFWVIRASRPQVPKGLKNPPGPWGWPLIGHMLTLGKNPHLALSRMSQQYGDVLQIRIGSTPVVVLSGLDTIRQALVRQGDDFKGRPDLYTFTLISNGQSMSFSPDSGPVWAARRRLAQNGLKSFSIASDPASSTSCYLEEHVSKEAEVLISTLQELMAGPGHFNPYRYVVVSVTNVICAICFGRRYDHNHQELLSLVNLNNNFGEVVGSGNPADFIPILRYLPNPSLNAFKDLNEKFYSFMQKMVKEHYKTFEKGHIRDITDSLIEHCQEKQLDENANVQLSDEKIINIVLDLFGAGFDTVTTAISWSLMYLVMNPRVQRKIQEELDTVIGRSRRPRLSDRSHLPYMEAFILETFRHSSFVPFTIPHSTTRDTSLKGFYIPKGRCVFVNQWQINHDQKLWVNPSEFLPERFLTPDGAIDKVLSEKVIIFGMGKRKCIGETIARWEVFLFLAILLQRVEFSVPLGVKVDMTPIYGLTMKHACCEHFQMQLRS

Aromatase = target: T2, Aromatase (Homo sapiens, UniProt P11511); test: Inhibition of human CYP19 at 10 uM; type: ADME
T2 sequence (P11511 whole entry): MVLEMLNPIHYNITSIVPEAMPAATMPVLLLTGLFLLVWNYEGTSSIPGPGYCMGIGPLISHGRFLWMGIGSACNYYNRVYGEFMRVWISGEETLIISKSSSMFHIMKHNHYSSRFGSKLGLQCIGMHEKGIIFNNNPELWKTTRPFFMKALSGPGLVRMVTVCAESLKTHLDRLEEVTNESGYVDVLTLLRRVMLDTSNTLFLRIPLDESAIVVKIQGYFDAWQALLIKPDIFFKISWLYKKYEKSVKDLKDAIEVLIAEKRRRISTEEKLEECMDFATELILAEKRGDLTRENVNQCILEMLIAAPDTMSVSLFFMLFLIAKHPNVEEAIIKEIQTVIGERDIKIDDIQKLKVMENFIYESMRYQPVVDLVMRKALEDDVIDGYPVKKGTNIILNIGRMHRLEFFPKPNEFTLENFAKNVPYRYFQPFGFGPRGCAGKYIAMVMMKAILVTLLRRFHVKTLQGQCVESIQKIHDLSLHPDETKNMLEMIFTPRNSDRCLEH

O=C1N[C@H]2[C@H](O)[C@H](O)[C@@H](O)C[C@@H]2c2cc3c(c(O)c21)OCO3
inhibition (INH) (Cytochrome P450 1A1): Not Active | inhibition (INH) (Aromatase): Not Active
